Measurements reported in article PMC7285812 (Drug Design, Development and Therapy, 2020).
Where “and” joins values, the source holds several entries; their conditions need not be identical. Equal values may be shown once. Where a name gives a salt, the structure may show the parent alone.

Columns and labels:
[1] = biological target: α-glucosidase from Saccharomyces cerevisiae (Saccharomyces cerevisiae, UniProt P53341); assay: α-Glucosidase inhibition, chromogenic assay; assay type: biochemical; conditions: for inhibition at 15.62 µg/mL / inhibition at 31.25 µg/mL / inhibition at 62.5 µg/mL / inhibition at 125 µg/mL / inhibition at 250 µg/mL / inhibition at 500 µg/mL / inhibition at 1000 µg/mL: read-out: (%) Inhibition α-glucosidase
Sequence of α-glucosidase from Saccharomyces cerevisiae (P53341 whole entry): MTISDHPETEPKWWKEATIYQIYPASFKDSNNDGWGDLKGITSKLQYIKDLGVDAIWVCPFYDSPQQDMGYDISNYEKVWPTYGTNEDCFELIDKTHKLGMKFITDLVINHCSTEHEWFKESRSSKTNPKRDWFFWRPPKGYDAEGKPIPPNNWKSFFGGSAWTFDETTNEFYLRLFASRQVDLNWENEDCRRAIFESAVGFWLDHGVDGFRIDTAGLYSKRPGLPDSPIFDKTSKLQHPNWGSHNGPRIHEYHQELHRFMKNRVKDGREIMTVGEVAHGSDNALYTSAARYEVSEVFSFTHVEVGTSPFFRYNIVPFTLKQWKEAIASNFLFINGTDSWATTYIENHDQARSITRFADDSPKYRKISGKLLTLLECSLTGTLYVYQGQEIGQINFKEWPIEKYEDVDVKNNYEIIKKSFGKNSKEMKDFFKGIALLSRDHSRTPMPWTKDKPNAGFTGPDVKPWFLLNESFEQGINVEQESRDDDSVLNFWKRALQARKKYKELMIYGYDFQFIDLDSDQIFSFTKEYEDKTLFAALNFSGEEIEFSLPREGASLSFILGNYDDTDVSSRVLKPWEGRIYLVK

α-glucosidase = α-glucosidase (Saccharomyces cerevisiae, UniProt P53341); assay: Michaelis–Menten kinetics of α-glucosidase inhibition; assay type: biochemical; conditions: Michaelis–Menten / Lineweaver–Burk
Sequence of α-glucosidase (P53341 whole entry): as above

[2] = DPPH radicals scavenging assay; conditions: for IC50: read-out: IC50 DPPH free radicals scavenging
[3] = ABTS free radicals scavenging assay; conditions: for IC50: read-out: IC50 ABTS free radicals scavenging
AChE electric eel = AChE electric eel (Electrophorus electricus, UniProt O42275); assay: biochemical; conditions: for inhibition at 15.62 µg/mL / inhibition at 31.25 µg/mL / inhibition at 62.5 µg/mL / inhibition at 125 µg/mL / inhibition at 250 µg/mL / inhibition at 500 µg/mL / inhibition at 1000 µg/mL: read-out: (%) Inhibition AChE
Sequence of AChE electric eel (O42275 24-633): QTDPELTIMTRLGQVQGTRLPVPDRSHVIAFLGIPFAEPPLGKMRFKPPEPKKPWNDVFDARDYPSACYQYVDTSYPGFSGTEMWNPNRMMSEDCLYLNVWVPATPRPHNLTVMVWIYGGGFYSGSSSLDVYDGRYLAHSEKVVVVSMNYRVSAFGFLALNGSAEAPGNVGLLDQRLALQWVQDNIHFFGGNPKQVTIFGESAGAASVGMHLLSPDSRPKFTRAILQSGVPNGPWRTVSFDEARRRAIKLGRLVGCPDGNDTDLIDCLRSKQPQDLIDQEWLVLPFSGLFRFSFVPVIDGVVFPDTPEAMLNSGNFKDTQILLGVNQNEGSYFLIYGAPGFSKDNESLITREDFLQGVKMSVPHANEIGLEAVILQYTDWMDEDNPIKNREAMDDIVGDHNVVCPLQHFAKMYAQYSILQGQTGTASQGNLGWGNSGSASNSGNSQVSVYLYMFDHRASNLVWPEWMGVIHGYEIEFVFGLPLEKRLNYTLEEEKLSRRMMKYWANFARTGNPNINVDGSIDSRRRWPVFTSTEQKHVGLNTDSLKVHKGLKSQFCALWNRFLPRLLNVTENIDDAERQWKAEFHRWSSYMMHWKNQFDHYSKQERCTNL

[4] = biological target: BChE (lyophilized equine serum) (Equus caballus, UniProt P81908); assay: Butyrylcholinesterase inhibition, Ellman's assay; assay type: biochemical; conditions: for inhibition at 15.62 µg/mL / inhibition at 31.25 µg/mL / inhibition at 62.5 µg/mL / inhibition at 125 µg/mL / inhibition at 250 µg/mL / inhibition at 500 µg/mL / inhibition at 1000 µg/mL: read-out: (%) Inhibition BChE
Sequence of BChE (lyophilized equine serum) (P81908 whole entry): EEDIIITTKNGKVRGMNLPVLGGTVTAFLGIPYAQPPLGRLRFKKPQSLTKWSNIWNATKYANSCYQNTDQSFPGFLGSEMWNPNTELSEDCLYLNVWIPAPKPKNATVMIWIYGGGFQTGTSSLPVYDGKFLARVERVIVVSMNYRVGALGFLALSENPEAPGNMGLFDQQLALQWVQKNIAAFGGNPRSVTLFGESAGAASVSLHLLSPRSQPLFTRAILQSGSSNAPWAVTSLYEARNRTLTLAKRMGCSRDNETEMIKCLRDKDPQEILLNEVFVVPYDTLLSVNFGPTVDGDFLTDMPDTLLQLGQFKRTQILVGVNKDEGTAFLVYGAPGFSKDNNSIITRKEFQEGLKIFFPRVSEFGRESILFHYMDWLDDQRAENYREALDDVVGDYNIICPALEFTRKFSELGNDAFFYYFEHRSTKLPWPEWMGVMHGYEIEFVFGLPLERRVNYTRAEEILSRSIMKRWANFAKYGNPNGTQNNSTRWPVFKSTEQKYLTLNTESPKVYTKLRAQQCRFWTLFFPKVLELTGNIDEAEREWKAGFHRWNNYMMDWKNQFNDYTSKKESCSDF

[5] = Hydrogen peroxide free radicals scavenging assay; conditions: read-out: IC50 H2O2 free radicals scavenging
acetylcholinesterase = acetylcholinesterase (Electrophorus electricus, UniProt O42275); assay: Michaelis–Menten kinetics of acetylcholinesterase inhibition; assay type: biochemical, electric eel; conditions: Michaelis–Menten / Lineweaver–Burk
Sequence of acetylcholinesterase (O42275 24-633): as the sequence (O42275 24-633) above

butyrylcholinesterase = butyrylcholinesterase (Equus caballus, UniProt P81908); assay: Michaelis–Menten kinetics of butyrylcholinesterase inhibition; assay type: biochemical, equine; conditions: Michaelis–Menten / Lineweaver–Burk
Sequence of butyrylcholinesterase (P81908 whole entry): as the sequence (P81908 whole entry) above

SMILES: C[C@H]1O[C@H](O[C@H]2[C@H](O)[C@@H](O)[C@@H](O[C@H]3[C@H](O)[C@@H](O)C(O)O[C@@H]3CO)O[C@@H]2CO)[C@H](O)[C@@H](O)[C@@H]1N[C@H]1C=C(CO)[C@@H](O)[C@H](O)[C@H]1O (some centres unmarked) [Acarbose (Std), acarbose, reference compound]
- inhibition at 15.62 µg/mL [1]: 41.8 ± 0.37%
- inhibition at 31.25 µg/mL [1]: 49.9 ± 0.48%
- inhibition at 62.5 µg/mL [1]: 57.7 ± 0.88%
- inhibition at 125 µg/mL [1]: 63.9 ± 1.27%
- inhibition at 250 µg/mL [1]: 72 ± 2.01%
- inhibition at 500 µg/mL [1]: 75.1 ± 1.04%
- inhibition at 1000 µg/mL [1]: 83.6 ± 1.67%
- Vmax, α-glucosidase (α-glucosidase): 2.639 µg/min and 2.616 µg/min

SMILES: O=C1O[C@H]([C@@H](O)CO)C(O)=C1O [Ascorbic acid (Std.), ascorbic acid, reference compound]
- (%) Inhibition DPPH ([2]; 15.62 μg/mL): 48.70 ± 0.90%
- (%) Inhibition DPPH ([2]; 31.25 μg/mL): 55.23 ± 1.21%
- (%) Inhibition DPPH ([2]; 62.5 μg/mL): 61.40 ± 1.85%
- (%) Inhibition DPPH ([2]; 125 μg/mL): 69.66 ± 1.36%
- (%) Inhibition DPPH ([2]; 250 μg/mL): 77.00 ± 1.73%
- (%) Inhibition DPPH ([2]; 500 μg/mL): 83.96 ± 1.91%
- (%) Inhibition DPPH ([2]; 1000 μg/mL): 89.00 ± 0.57%
- IC50 [2]: 96.5 µM
- (%) Inhibition ABTS ([3]; 15.62 μg/mL): 46.00±0.58%
- (%) Inhibition ABTS ([3]; 31.25 μg/mL): 52.67±0.89%
- (%) Inhibition ABTS ([3]; 62.5 μg/mL): 58.00±1.15%
- (%) Inhibition ABTS ([3]; 125 μg/mL): 67.00±0.00%
- (%) Inhibition ABTS ([3]; 250 μg/mL): 75.03±0.23%
- (%) Inhibition ABTS ([3]; 500 μg/mL): 81.70±1.60%
- (%) Inhibition ABTS ([3]; 1000 μg/mL): 87.73±0.78%
- IC50 [3]: 85.2 µM

SMILES: O=CC1([C@@H]2CC(=O)N(c3ccccc3)C2=O)CCCCC1 [Compound 1, (S)-1-(2,5-dioxo-1-phenylpyrrolidin-3-yl) cyclohexanecarbaldehyde]
- IC50 (AChE electric eel): 343 µM
- inhibition at 15.62 µg/mL (AChE electric eel): 12.8 ± 1.5%
- inhibition at 31.25 µg/mL (AChE electric eel): 23.9 ± 0.88%
- inhibition at 62.5 µg/mL (AChE electric eel): 41.1 ± 0.47%
- inhibition at 125 µg/mL (AChE electric eel): 57.03 ± 0.35%
- inhibition at 250 µg/mL (AChE electric eel): 68.6 ± 1.06%
- inhibition at 500 µg/mL (AChE electric eel): 72.76 ± 0.71%
- inhibition at 1000 µg/mL (AChE electric eel): 78.42 ± 0.43%
- IC50 [4]: 277 µM
- inhibition at 15.62 µg/mL [4]: 15.4 ± 0.9%
- inhibition at 31.25 µg/mL [4]: 26.1 ± 1.04%
- inhibition at 62.5 µg/mL [4]: 44.6 ± 0.63%
- inhibition at 125 µg/mL [4]: 59.8 ± 1.21%
- inhibition at 250 µg/mL [4]: 69.7 ± 0.91%
- inhibition at 500 µg/mL [4]: 75.76 ± 0.61%
- inhibition at 1000 µg/mL [4]: 81.49 ± 0.6%
- (%) Inhibition DPPH ([2]; 15.62 μg/mL): 28.23 ± 1.71 %
- (%) Inhibition DPPH ([2]; 31.25 μg/mL): 34.05 ± 1.40 %
- (%) Inhibition DPPH ([2]; 62.5 μg/mL): 44.66 ± 0.88 %
- (%) Inhibition DPPH ([2]; 125 μg/mL): 58.50 ± 1.61 %
- (%) Inhibition DPPH ([2]; 250 μg/mL): 68.40 ± 1.97 %
- (%) Inhibition DPPH ([2]; 500 μg/mL): 72.83 ± 1.89 %
- (%) Inhibition DPPH ([2]; 1000 μg/mL): 79.53 ± 1.92 %
- IC50 [2]: 298 µM
- (%) Inhibition ABTS ([3]; 15.62 μg/mL): 16.60±1.63 %
- (%) Inhibition ABTS ([3]; 31.25 μg/mL): 26.87±0.85 %
- (%) Inhibition ABTS ([3]; 62.5 μg/mL): 40.51±0.54 %
- (%) Inhibition ABTS ([3]; 125 μg/mL): 54.49±0.60 %
- (%) Inhibition ABTS ([3]; 250 μg/mL): 61.22±1.28 %
- (%) Inhibition ABTS ([3]; 500 μg/mL): 67.31±0.58 %
- (%) Inhibition ABTS ([3]; 1000 μg/mL): 79.87±1.27 %
- IC50 [3]: 333 µM
- IC50 [5]: 826 µM
- IC50 [1]: 158 µM
- inhibition at 15.62 µg/mL [1]: 28 ± 0.35%
- inhibition at 31.25 µg/mL [1]: 34.4 ± 0.43%
- inhibition at 62.5 µg/mL [1]: 44.9 ± 1.55%
- inhibition at 125 µg/mL [1]: 58.8 ± 0.71%
- inhibition at 250 µg/mL [1]: 68.8 ± 1.24%
- inhibition at 500 µg/mL [1]: 72.9 ± 0.96%
- inhibition at 1000 µg/mL [1]: 79.6 ± 1.12%
- Vmax, acetylcholinesterase inhibition (acetylcholinesterase): 84.93 µg/min
- Vmax, butyrylcholinesterase inhibition (butyrylcholinesterase): 1.553 µg/min
- Vmax, α-glucosidase (α-glucosidase): 2.360 µg/min

SMILES: C[C@](C=O)(c1ccccc1)[C@@H]1CC(=O)N(c2ccccc2)C1=O [Compound 2, (R)-2-((S)-2,5-dioxo-1-phenylpyrrolidin-3-yl)-2-phenylpropanal]
- IC50 (AChE electric eel): 423 µM
- inhibition at 15.62 µg/mL (AChE electric eel): 21.3 ± 0.87%
- inhibition at 31.25 µg/mL (AChE electric eel): 27.2 ± 0.47%
- inhibition at 62.5 µg/mL (AChE electric eel): 39.1 ± 0.54%
- inhibition at 125 µg/mL (AChE electric eel): 48 ± 0.3%
- inhibition at 250 µg/mL (AChE electric eel): 59.9 ± 0.6%
- inhibition at 500 µg/mL (AChE electric eel): 70.5 ± 0.9%
- inhibition at 1000 µg/mL (AChE electric eel): 77.23 ± 0.22%
- IC50 [4]: 358 µM
- inhibition at 15.62 µg/mL [4]: 23.4 ± 0.82%
- inhibition at 31.25 µg/mL [4]: 31.2 ± 0.47%
- inhibition at 62.5 µg/mL [4]: 42 ± 0.97%
- inhibition at 125 µg/mL [4]: 51.9 ± 0.45%
- inhibition at 250 µg/mL [4]: 62.12 ± 0.54%
- inhibition at 500 µg/mL [4]: 72.54 ± 0.6%
- inhibition at 1000 µg/mL [4]: 79 ± 1.03%
- (%) Inhibition DPPH ([2]; 15.62 μg/mL): 13.70±1.60 %
- (%) Inhibition DPPH ([2]; 31.25 μg/mL): 23.55 ± 1.85 %
- (%) Inhibition DPPH ([2]; 62.5 μg/mL): 36.36 ± 0.91 %
- (%) Inhibition DPPH ([2]; 125 μg/mL): 50.07 ± 0.97 %
- (%) Inhibition DPPH ([2]; 250 μg/mL): 61.31 ± 1.97 %
- (%) Inhibition DPPH ([2]; 500 μg/mL): 70.34 ±1.10 %
- (%) Inhibition DPPH ([2]; 1000 μg/mL): 77.04 ± 1.61 %
- IC50 [2]: 407 µM
- (%) Inhibition ABTS ([3]; 15.62 μg/mL): 12.33±1.67 %
- (%) Inhibition ABTS ([3]; 31.25 μg/mL): 22.83±1.21 %
- (%) Inhibition ABTS ([3]; 62.5 μg/mL): 38.10±0.90 %
- (%) Inhibition ABTS ([3]; 125 μg/mL): 49.31±0.58 %
- (%) Inhibition ABTS ([3]; 250 μg/mL): 59.87±0.85 %
- (%) Inhibition ABTS ([3]; 500 μg/mL): 68.51±0.54 %
- (%) Inhibition ABTS ([3]; 1000 μg/mL): 75.76±0.61 %
- IC50 [3]: 498 µM
- IC50 [1]: 472 µM
- inhibition at 15.62 µg/mL [1]: 28.8 ± 1.5%
- inhibition at 31.25 µg/mL [1]: 34 ± 0.35%
- inhibition at 62.5 µg/mL [1]: 41.9 ± 0.96%
- inhibition at 125 µg/mL [1]: 47.8 ± 1.5%
- inhibition at 250 µg/mL [1]: 55.8 ± 0.71%
- inhibition at 500 µg/mL [1]: 65.08 ± 0.47%
- inhibition at 1000 µg/mL [1]: 71.8 ± 1.24%
- Vmax, acetylcholinesterase inhibition (acetylcholinesterase): 78.65 µg/min
- Vmax, butyrylcholinesterase inhibition (butyrylcholinesterase): 2.867 µg/min
- Vmax, α-glucosidase (α-glucosidase): 3.542 µg/min

SMILES: COc1ccc2c3c1O[C@H]1C[C@@H](O)C=C[C@@]31CCN(C)C2 [Galanthamine (Std.), galanthamine hydrobromide, reference compound]
- inhibition at 15.62 µg/mL [4]: 49.7 ± 0.68%
- inhibition at 31.25 µg/mL [4]: 59.33 ± 0.49%
- inhibition at 62.5 µg/mL [4]: 69.03 ± 0.23%
- inhibition at 125 µg/mL [4]: 73.23 ± 0.4%
- inhibition at 250 µg/mL [4]: 80.74 ± 0.68%
- inhibition at 500 µg/mL [4]: 86.9 ± 0.48%
- inhibition at 1000 µg/mL [4]: 93.9 ± 0.96%
- Vmax, butyrylcholinesterase inhibition (butyrylcholinesterase; listed as galantamine): 2.566 µg/min and 2.641 µg/min
